PubChem BioAssay (NCI)
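Briefly, cells in 96-well plates were exposed to five compound concentrations for 48 h, and endpoints were estimated by linear interpolation. TGI: total growth inhibition.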

Experiments:
Test in all cases: DTP human tumour cell line panel, 48 h
786-0 renal = test system: 786-0 renal
A498 renal = test system: A498 renal
A549 NSCLC = test system: A549 NSCLC
CAKI-1 renal = test system: CAKI-1 renal
EKVX NSCLC = test system: EKVX NSCLC
MDA-MB-231 breast = test system: MDA-MB-231 breast
RXF 393 renal = test system: RXF 393 renal
SF-295 CNS = test system: SF-295 CNS
SR leukemia = test system: SR leukemia
UACC-257 melanoma = test system: UACC-257 melanoma
UO-31 renal = test system: UO-31 renal

| Compound | TGI (786-0 renal) | TGI (A498 renal) | TGI (A549 NSCLC) | TGI (CAKI-1 renal) | TGI (EKVX NSCLC) | TGI (MDA-MB-231 breast) | TGI (RXF 393 renal) | TGI (SF-295 CNS) | TGI (SR leukemia) | TGI (UACC-257 melanoma) | TGI (UO-31 renal) |
| --- | --- | --- | --- | --- | --- | --- | --- | --- | --- | --- | --- |
| C#CC1(O)C(COP(=O)(O)OCC2OC(n3ccc(NCCCCCCCCCCCCCCCCCC)nc3=O)C(O)C2O)OC(n2ccc(N)nc2=O)C1O (centres undefined) | > 100 µM | 59.2 µM | > 55.9 µM | 6.77 µM | 54.1 µM | 34.4 µM | 61.9 µM | 18.6 µM | 11.7 µM | 60.2 µM | 2.53 µM |
| Cc1cc(C)nc(SC(C)C(=O)N/N=C/c2ccc(OCc3ccccc3)cc2)n1 (centres undefined) | > 100 µM | > 100 µM | > 100 µM | > 100 µM | > 100 µM | 65 µM | 66.6 µM | > 100 µM | 38.1 µM | 37.9 µM | > 100 µM |
| CCCCN1C(=O)c2c(-c3sccc3N)sc(-c3sccc3N)c2C1=O | 21.1 µM | 76.8 µM | > 100 µM | > 100 µM | > 83.7 µM | 97.3 µM | 41 µM | 58 µM | > 23.1 µM | > 100 µM | > 51 µM |
| Nc1nc(Cl)cc(NCCC2(CO)CCC2)n1 | > 100 µM | > 100 µM | > 100 µM | > 100 µM | > 100 µM | > 100 µM | > 100 µM | > 100 µM | > 100 µM | > 100 µM | > 100 µM |
| O=S(=O)(O)ON=C1c2ccccc2-c2ccccc21 | > 100 µM | > 100 µM | > 100 µM | > 100 µM | > 100 µM | > 100 µM | > 100 µM | > 100 µM | > 100 µM | > 100 µM | > 100 µM |
| NCCCNC1(c2cc3ccccc3s2)CCCCC1 | 5.27 µM | 9.03 µM | 21.5 µM | 23 µM | 22.5 µM | 14.2 µM | 17.3 µM | 24.8 µM | 4.68 µM | 3.23 µM | 8.44 µM |
| CC1C2CC(C(S(=O)(=O)N3CCOCC3)/C2=N\O)C1(C)C (centres undefined) | > 100 µM | > 100 µM | > 100 µM | > 100 µM | > 100 µM | > 100 µM | > 100 µM | > 100 µM | > 100 µM | > 100 µM | > 100 µM |
| Cc1noc2nnn(-c3ccc(Cl)cc3)c(=O)c12 | 8.33 µM | 27.1 µM | 27.7 µM | 13 µM | 20.4 µM | 25.7 µM | 4.79 µM | 27.8 µM | 3.78 µM | 20.9 µM | 8.63 µM |
| CCOC(=O)Cc1nc2sc(S(N)(=O)=O)nn2c1Br | 52.1 µM | 65.6 µM | > 100 µM | 37.2 µM | 79.4 µM | 44.6 µM | 69.8 µM | > 100 µM | > 100 µM | > 100 µM | 29.4 µM |
